O=C1c2ccccc2C(=O)N1O
solubility (mole fraction)
Conditions	278.15 K	283.15 K	288.15 K	293.15 K	298.15 K	303.15 K	308.15 K	313.15 K	318.15 K	323.15 K
in 1,4-dioxane	–	–	0.0181	0.0204	0.0231	0.0255	0.0286	0.0319	0.0354	0.0393
in 2-ethoxyethanol	0.016	0.0182	0.0207	0.0233	0.026	0.0294	0.0327	0.0364	0.0404	0.0447
in 2-methoxyethanol	0.0254	0.028	0.0311	0.0346	0.0381	0.0421	0.0466	0.051	0.056	0.062
in acetone	0.00744	0.00861	0.00981	0.0111	0.0126	0.0144	0.0161	0.0186	0.0202	0.0222
in acetonitrile	0.00232	0.00268	0.00312	0.0036	0.00414	0.00476	0.00543	0.00618	0.00701	0.0079
in ethanol	0.00307	0.00366	0.00442	0.00526	0.00614	0.00729	0.00855	0.01	0.0117	0.0138
in ethyl acetate	0.00214	0.00252	0.00301	0.00353	0.00399	0.00465	0.00541	0.0062	0.00705	0.00807
in methanol	0.00354	0.00412	0.00484	0.00566	0.00657	0.0078	0.00903	0.0105	0.0123	0.0143
in methyl acetate	0.00303	0.00342	0.00394	0.00462	0.00528	0.00618	0.00696	0.00794	0.00908	0.0104
in n-propanol	0.00214	0.00259	0.00321	0.00388	0.00467	0.00568	0.00688	0.00834	0.00992	0.0119
in n-propyl acetate	0.0017	0.00202	0.00235	0.00281	0.00329	0.00381	0.00442	0.00512	0.00594	0.00679
